Values after ≈ are worked out from the molar mass of the structure shown.
Columns and labels:
[1] = tested on: Staphylococcus aureus strains; experiment: Vancomycin Etest; assay type: cell-based; conditions: 125 clinical Staphylococcus aureus strains selected for PAP-AUC (35 hVISA, 90 VSSA); read-out: minimal inhibition concentration
Protocol: Firstly, the microorganism sample solution 10 is cultured on a blood agar plate. Next, the microorganism sample solution 10 is cultured in 5% carbon dioxide concentration and 37° C. for 16-18 hours. After being cultured, a single strain group is taken from the blood agar plate and is subjected to a matrix-assisted laser desorption ionization time-of-flight (MALDI-TOF) for strains identification. With respect to selecting strains to be identified as Staphylococcus aureus strains, Vancomycin Etest is used in which 125 strains having a minimal inhibition concentration of 2-4 μg/mL are selected for PAP-AUC.

E. coli ATCC® 35218 [2] = conditions: cited from earlier work
E. coli ATCC® 25922 [3] = conditions: cited from earlier work
E. coli ATCC® 35218 [4] = experiment: ODEP force analysis after subjecting to ampicillin; assay type: cell-based, Escherichia coli; conditions: ampicillin 0, 4, 8 or 16 μg/ml, cultured 1.5 hours, FIG. 5
Source text: (§1) Referring to FIG. 1 again, after E. coli ATCC® 35218 and E. coli ATCC® 25922 have been activated, they are made into solutions having bacteria for subsequent antibiotics processing. Steps of making solutions having bacteria are described in detail below: selecting a plurality of activated large E. coli strains; dissolving it in normal saline which is a solution of sodium chloride at 0.9% concentration; adjusting its turbidity to 0.5 McFarland to make the microorganism sample solution 10; in each solution having bacteria, adding different amounts of ampicillin antibiotics powder to make a solution having antibiotics concentration of 0 μg/ml, 4 μg/ml, 8 μg/ml or 16 μg/ml, and finally, culturing each solution of different antibiotics concentration in 5% carbon dioxide concentration and 37° C. for 1.5 hours to make the microorganism sample solution to be tested 14.
(§2) Referring to FIGS. 1 to 4 again, an injection pump is used to inject the microorganism sample solution to be tested 14 into the ODEP device 20 via the sample injection hole 221. Electrical properties (e.g., conduction or polarizability) differences are generated because E. coli ATCC® 35218 and E. coli ATCC® 25922 in the microorganism sample solution to be tested 14 have been subjected to ampicillin. […]

E. coli ATCC® 25922 [5] = experiment: ODEP force analysis after subjecting to ampicillin; assay type: cell-based, Escherichia coli; conditions: ampicillin of gradually increased concentration (up to 16 μg/ml), cultured 1.5 hours, FIG. 5
Source text: as §1, §2

Row | Compound | MIC [1] [mg/L] | minimal inhibition concentration (E. coli ATCC® 35218 [2]) | minimal inhibition concentration (E. coli ATCC® 25922 [3]) [mg/L] | force generated by light (ODEP force) (E. coli ATCC® 35218 [4]) | force generated by light (ODEP force) (E. coli ATCC® 25922 [5]) [μm/sec]
1 | CN[C@H](CC(C)C)C(=O)N[C@H]1C(=O)N[C@@H](CC(N)=O)C(=O)N[C@H]2C(=O)N[C@H]3C(=O)N[C@H](C(=O)N[C@H](C(=O)O)c4cc(O)cc(O)c4-c4cc3ccc4O)[C@H](O)c3ccc(c(Cl)c3)Oc3cc2cc(c3O[C@@H]2O[C@H](CO)[C@@H](O)[C@H](O)[C@H]2O[C@H]2C[C@](C)(N)[C@H](O)[C@H](C)O2)Oc2ccc(cc2Cl)[C@H]1O [Vancomycin] | 2 to 4 (≈ 1.38 to 2.76 µM) |  |  |  | 
2 | CC1(C)S[C@@H]2[C@H](NC(=O)[C@H](N)c3ccccc3)C(=O)N2[C@H]1C(=O)O [ampicillin] |  | greater than 32 μg/ml | 2 to 8 | 220-260 μm/sec | 100

From US20210002689A1, “METHOD FOR DETECTING DIFFERENT PROPERTIES IN A MICROORGANISM POPULATION BY OPTICALLY INDUCED DIELECTROPHORETIC FORCE” (Chang Gung University, priority 2019, published 2021)
